In paper PMC6272242, “Topical Anti-inflammatory Activity of New Hybrid Molecules of Terpenes and Synthetic Drugs” (Molecules, 2015):

Experiments:
[1] = system: mice ear edema induced by arachidonic acid; test: Topical anti-inflammatory effect, arachidonic acid (AA) induced ear edema in mice; format: in vivo; conditions: 3.2 µmol/mouse; for inhibition in vivo at 3.2 µmol/animal / % TAAA ± SEM (percent reduction of the ear edema, arachidonic acid): 1 h after AA; for inhibition in vivo at 3.2 µmol/animal: n = 8, read-out: % TAAA ± SEM (percent reduction of the ear edema, arachidonic acid); for % TAAA ± SEM (percent reduction of the ear edema, arachidonic acid): n = 8
Description: (§1) The inflammatory agent arachidonic acid (AA) and phorbol 12-myristate 13-acetate (TPA) were used to assess the anti-inflammatory effect/action mechanism of the starting compounds, new synthetic products and reference drugs. […] Adult male CF-1 mice (20–25 g), obtained from a stock maintained at the Chilean Public Health Institute, were used to assess the anti-inflammatory effect. All animals were housed in a climate- and light-controlled room with a 12 h light-dark cycle, fasted overnight before the day of the assays, with free access to water. The anti-inflammatory activity of each compound was evaluated in groups of 8 treated and 16 control mice. Due to ethical considerations, the number of animals was kept to a minimum and single dose experiments were carried out.
(§2) The pro-inflammatory agents TPA and AA, the reference drugs indomethacin and nimesulide were from Sigma. […] After 5 min, inflammation was induced by the application of 20 µL TPA or AA (5 mg/mL) in acetone. […] Control subjects only received TPA or AA. Both, the sample and the TPA or AA, were applied to the inner (10 µL) and outer (10 µL) surfaces of the right ear. The left ear only received acetone. Mice were sacrificed by cervical dislocation (after 6 h of TPA and 1 h AA), and a 6 mm diameter section of the right and left ears were cut and weighed. The weight differences between both ear sections correspond to the edema value. The percent topical anti-inflammatory activity (TA) was evaluated according to the following equation: (1) %TA=[ Wc−Ws/Wc]× 100 where Wc and Ws are the different median values of the weights of the right and the left ear sections of the control and the treated animals, respectively.
(§3) For the animal experiments all values are presented as median ± SEM. Drug-induced changes were statistically estimated using the Kruskall-Wallis test for comparison between groups and testing, and the Mann-Whitney test was used in the independent data for individual comparisons. The effects were considered significant if p ≤ 0.05. For cytotoxicity experiments, each concentration was tested in quadruplicate together with the control and repeated three times in different experiments. Results are expressed as IC50 values (µM) ± S.D.

[2] = system: mice ear edema induced by 12-O-tetradecanoylphorbol 13-acetate; test: Topical anti-inflammatory effect, 12-O-tetradecanoylphorbol 13-acetate (TPA) induced ear edema in mice; format: in vivo; conditions: 1.4 µmol/mouse; for inhibition in vivo at 1.4 µmol/animal / % TATPA ± SEM (percent reduction of the ear edema, TPA): 6 h after TPA; for inhibition in vivo at 1.4 µmol/animal: n = 8, read-out: % TATPA ± SEM (percent reduction of the ear edema, TPA); for % TATPA ± SEM (percent reduction of the ear edema, TPA): n = 8
Description: as §1, §2, §3

lung fibroblasts (MRC-5) = test: Cytotoxicity, MTT reduction assay, MRC-5; format: cell-based; conditions: Homo sapiens, MRC5, confluent cultures, 24 h, read-out: IC50 ± SD, MRC-5
Description: (§4) The human cell lines, MRC-5 normal lung fibroblasts (CCL-171), AGS gastric epithelial adenocarcinoma cells (CRL-1739) and HepG2 hepatocellular carcinoma cells (HB-8065) were obtained from the American Type Culture Collection (ATCC, Manasas, VA, USA). The cells were grown as monolayers in the following media: MRC-5 and HepG2 in MEM and AGS in Ham F-12. The MEM medium contained 2 mM L-glutamine, 1 mM sodium pyruvate and 1.5 g/L sodium bicarbonate. Ham F-12 was supplemented with 2 mM L-glutamine and 1.5 g/L sodium bicarbonate. Both media were supplemented with 10% heat inactivated fetal bovine serum, 100 IU/mL penicillin and 100 µg/mL streptomycin in a humidified incubator with 5% CO2 in air at 37 °C. For the experiments, cells were plated at a density of 25,000 cells/mL in 96-well plates. […] Compounds were first dissolved in DMSO and then in medium. The final concentration of DMSO in the test medium and controls was 1%. […] The cell viability for each compound was calculated comparing the cell viability of the untreated controls (100%) with the cell viability of the different concentrations of each compound. Each concentration was tested in quadruplicate together with the control and repeated three times in separate experiments. Cell viability was determined at the end of the incubation by means of the MTT reduction assay. Results were converted to percentage of controls, and the IC50 values were graphically obtained from the dose-response curves. Culture media, antibiotics and fetal bovine serum were obtained from Invitrogen Corp. (Waltham, MA, USA). Other reagents were purchased from Sigma Chemical Co. For the animal experiments all values are presented as median ± SEM. Drug-induced changes were statistically estimated using the Kruskall-Wallis test for comparison between groups and testing, and the Mann-Whitney test was used in the independent data for individual comparisons. The effects were considered significant if p ≤ 0.05. For cytotoxicity experiments, each concentration was tested in quadruplicate together with the control and repeated three times in different experiments. Results are expressed as IC50 values (µM) ± S.D.

[3] = system: gastric epithelial cells (AGS); test: Cytotoxicity, MTT reduction assay, AGS; format: cell-based; conditions: Homo sapiens, Epithelial cell, confluent cultures, 24 h, read-out: IC50 ± SD, AGS
Description: as §4

hepatocytes HepG2 = test: Cytotoxicity, MTT reduction assay, HepG2; format: cell-based; conditions: Homo sapiens, confluent cultures, 24 h, read-out: IC50 ± SD, HepG2
Description: as §4, with “Results were converted to percentage of controls, and the IC50 values were graphically obtained from the dose-response curves.” left out

[4] = system: human lung fibroblasts (MRC-5), gastric epithelial cells (AGS) and hepatocytes HepG2; test: Cytotoxicity, MTT reduction assay, summary over the three cell lines; format: cell-based; conditions: for IC50: Homo sapiens, MRC-5, AGS and HepG2, 24 h, MTT, read-out: IC50 values, range over the three cell lines; for Cytotoxic effect, in words: MRC-5, AGS and HepG2
Description: as §4

| Structure (SMILES) | inhibition in vivo at 3.2 µmol/animal [1] | inhibition in vivo at 1.4 µmol/animal [2] | IC50 (lung fibroblasts (MRC-5)) | IC50 [3] | IC50 (hepatocytes HepG2) | IC50 [4] | Activity in the AA model, in words [1] | % TAAA ± SEM (percent reduction of the ear edema, arachidonic acid) [1] | % TATPA ± SEM (percent reduction of the ear edema, TPA) [2] | Cytotoxic effect, in words [4] | Activity in the TPA assay, in words [2] |
| --- | --- | --- | --- | --- | --- | --- | --- | --- | --- | --- | --- |
| CC(C)Cc1ccc([C@H](C)C(=O)Oc2cc3c(cc2C(C)C)CCC2C(C)(C)CCC[C@]32C)cc1 (mixture of isomers) [Compound 6, Ferruginyl ibuprofenate] | 14.9 ± 7.1% | 47.9 ± 4.6% | > 1000 µM | > 1000 µM | 874 ± 34 µM | ≥ 874 µM |  |  |  |  |  |
| C=C1CCC2[C@](C)(CCC[C@]2(C)C(=O)O)[C@H]1CC[C@@H](C)CCOC(=O)[C@@H](C)c1ccc(CC(C)C)cc1 (mixture of isomers) [Compound 8, Imbricatol-15-yl ibuprofenate] | 10 ± 6% | 40.3 ± 2.4% | 34 ± 2 µM | 23 ± 1 µM | 79 ± 8 µM | 23 to 79 µM |  |  |  |  |  |
| C=C1CCC2[C@](C)(CCC[C@]2(C)C(=O)OC)[C@H]1CC[C@@H](C)CCOC(=O)[C@@H](C)c1ccc(CC(C)C)cc1 (mixture of isomers) [Compound 9, Imbricatol-15-yl ibuprofenate methyl ester] | 14.9 ± 7.4% | 41.2 ± 6.2% | 706 ± 35 µM | 623 ± 39 µM | 746 ± 38 µM | ≥ 601 µM |  |  |  |  |  |
| CC(C)Cc1ccc([C@H](C)C(=O)O[C@H]2CC[C@@]3(C)C(CC[C@]4(C)C3CC=C3C5CC(C)(C)CC[C@]5(C(=O)O)CC[C@]34C)C2(C)C)cc1 (mixture of isomers) [Compound 12, Oleanoyl ibuprofenate] | 56.8% | 79.9% | 616 ± 32 µM | 526 ± 19 µM | > 1000 µM |  | significant effect | 56.8 ± 7.4 % | 79.9 ± 10.6 % |  |  |
| COC(=O)[C@]12CCC(C)(C)CC1C1=CCC3[C@@]4(C)CC[C@H](OC(=O)[C@@H](C)c5ccc(CC(C)C)cc5)C(C)(C)C4CC[C@@]3(C)[C@]1(C)CC2 (mixture of isomers) [Compound 13, Oleanoyl ibuprofenate methyl ester] | 19.5 ± 9.2% | 47.4 ± 2.6% | 402 ± 20 µM | 454 ± 21 µM | 742 ± 48 µM |  |  |  |  |  |  |
| CC(C)c1cc2c(cc1O)[C@@]1(C)CCCC(C)(C)[C@@H]1CC2 [Compound 1, ferruginol, reference compound] | 21 ± 2.1% | 20.4 ± 3.1% | 31 ± 2 µM | 29 ± 1 µM | 39 ± 3 µM | 29 to 39 µM |  | 21.0 ± 2.1 *^,a % | 20.4 ± 3.1 *^,a % | strong |  |
| C=C1CC[C@@H]2[C@](C)(CCC[C@]2(C)C(=O)O)[C@H]1CC[C@H](C)CCO [Compound 2, imbricatolic acid, reference compound] | 5 ± 3% | 10.1 ± 4% | 134 ± 7 µM | 148 ± 9 µM | 111 ± 7 µM | 111 to 148 µM |  |  |  | moderate |  |
| CC1(C)CC[C@]2(C(=O)O)CC[C@]3(C)C(=CC[C@@H]4[C@@]5(C)CC[C@H](O)C(C)(C)[C@@H]5CC[C@]43C)[C@@H]2C1 [Compound 3, oleanolic acid, reference compound] | 2.7 ± 7.5% | 70.2 ± 8.3% | 186 ± 9 µM | 234 ± 16 µM | 170 ± 5 µM |  | inactive |  | 70.2 ± 8.3 *^,a % |  | active |
| COc1ccc2cc([C@H](C)C(=O)O)ccc2c1 [Compound 5, naproxen, reference compound] |  | 29.9 ± 6.2% | > 1000 µM | > 1000 µM |  |  | inactive |  |  |  |  |
| COc1ccc2cc([C@H](C)C(=O)O[C@H]3CC[C@@]4(C)C(CC[C@]5(C)C4CC=C4C6CC(C)(C)CC[C@]6(C(=O)O)CC[C@]45C)C3(C)C)ccc2c1 (some centres unmarked) [Compound 14, Oleanoyl naproxenate] | 9 ± 11.3% | 55.5 ± 5.1% | 554 ± 22 µM | 486 ± 26 µM | > 1000 µM |  |  |  |  |  |  |
| COC(=O)[C@]12CCC(C)(C)CC1C1=CCC3[C@@]4(C)CC[C@H](OC(=O)[C@@H](C)c5ccc6cc(OC)ccc6c5)C(C)(C)C4CC[C@@]3(C)[C@]1(C)CC2 (some centres unmarked) [Compound 15, Oleanoyl naproxenate methyl ester] | 2.7 ± 8.1% | 80% | 816 ± 42 µM | 593 ± 31 µM | > 1000 µM |  |  |  | 80.0 ± 11.0 % |  |  |
| COc1cc([C@@H]2c3cc4c(cc3[C@@H](O[C@@H]3O[C@@H]5CO[C@@H](C)O[C@H]5[C@H](O)[C@H]3O)[C@H]3COC(=O)[C@H]23)OCO4)cc(OC)c1O [Etoposide, reference compound] |  |  | 3.9 ± 0.1 µM | 0.36 ± 0.02 µM | 2.4 ± 0.1 µM |  |  |  |  |  |  |
| COc1ccc2c(c1)c(CC(=O)O)c(C)n2C(=O)c1ccc(Cl)cc1 [Indomethacin, reference compound] |  | 92.9% |  |  |  |  |  |  | ↑92.9 ± 13.2 % |  |  |
| CS(=O)(=O)Nc1ccc([N+](=O)[O-])cc1Oc1ccccc1 [Nimesulide, reference compound] | 48.9% |  |  |  |  |  |  | ↑48.9 ± 5.5 % |  |  |  |
